Measurements: patent US20030032774A1, “Novel opioid peptides for the treatment of pain” (priority 1994, published 2003)
Where two headings read alike, the source gives them in different places. Square brackets hold non-standard residues; d marks the D form. Peptide text beside a SMILES is read from it. Phe(4-NO2) = N[C@@H](Cc1ccc([N+](=O)[O-])cc1)C(=O)O; Phe(4-F) = N[C@@H](Cc1ccc(F)cc1)C(=O)O; 2Nal = N[C@@H](Cc1ccc2ccccc2c1)C(=O)O; Dmt = Cc1cc(O)cc(C)c1C[C@H](N)C(=O)O; dNva = CCC[C@@H](N)C(=O)O

What was measured:
μ receptor = target: T1, μ receptor (Rattus norvegicus, UniProt P33535); experiment: Radioligand binding assay, μ opioid receptor ((3H)-DAMGO, brain membranes); details: for Binding Assay Kiδ Kiμ: selectivity ratio
T1 construct: the brains (minus the cerebellum) were removed, placed in ice-cold saline solution, and then homogenized; from tissue; host or cells: rat brain (minus cerebellum) membranes
T1 sequence (P33535 whole entry): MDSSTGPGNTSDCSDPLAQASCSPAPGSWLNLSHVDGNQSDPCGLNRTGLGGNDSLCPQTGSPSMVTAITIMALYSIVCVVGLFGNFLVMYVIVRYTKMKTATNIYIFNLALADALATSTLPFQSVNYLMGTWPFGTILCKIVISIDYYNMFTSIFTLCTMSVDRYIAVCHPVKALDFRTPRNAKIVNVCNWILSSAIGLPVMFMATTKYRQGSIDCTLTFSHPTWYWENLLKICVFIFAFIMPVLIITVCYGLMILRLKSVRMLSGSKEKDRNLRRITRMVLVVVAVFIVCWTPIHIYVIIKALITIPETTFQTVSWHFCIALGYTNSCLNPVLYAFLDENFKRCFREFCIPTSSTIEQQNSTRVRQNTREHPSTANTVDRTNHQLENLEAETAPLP
Procedure: (§1) PBQ (phenyl-ρ-benzoquinone) induced writhing in mice is an assessment of both central and peripheral analgesia (see Sigmund, et al., Proc. Soc. Exp. Biol. Med. 95:729 (1957)). Central analgesia is determined by the inhibition of a hot-plate response in mice (see, Wolfe, et al., J. Pharmacol. Exp. Ther. 80:300 (1944)). Assays measuring opioid receptor binding affinities for μ and δ receptors as well as the GPI assay were determined through experimental protocol set out in Schiller et al. (Biophys. Res. Commun. 85:1322 (1975)). The references by Sigmund, et al., Wolfe, et al., and Schiller, et al. are each hereby incorporated by reference.
(§2) Male Sprague-Dawley rats weighing between 350-450 g were sacrificed by inhalation of CO2. The rats were decapitated and the brains (minus the cerebellum) were removed, placed in ice-cold saline solution, and then homogenized in ice-cold 50 mM Tris buffer pH 7.4 (10 ml/brain). Membranes were centrifuged at 14000 rpm for 30 min. at 4° C. The pellets were re-suspended in approximately 6 ml/brain of ice-cold Tris buffer 50 mM pH 7.4 and stored at −78° C. until ready for use. Protein quantification of the brain homogenate was conducted according to protein assay kit purchased (Bio-Rad).
(§3) (^3H)-DAMGO and (^3H)-DAGLE were used as radioligands for the μ and δ receptors, respectively. Radioligand 50 μl, membranes 100 μl, and serially diluted test compound were incubated for 1 hr at 22° C. Nonspecific binding was determined using a 500 fold excess of unlabeled ligand in the presence of tracer and membranes. Free ligand was separated from bound by filtration through Whatman GF/B paper (presoaked in polyethylenimine 1% aqueous solution) and rinsing with ice-cold 50 mM Tris pH 7.4 using a Brandel cell harvester. The filters were dried and radioactivity was counted in a 24 well microplate in the presence of 500 μl scintillant per well. Radioactivity was measured using a Wallace 1450 Microbeta counter. Ki's for the various compounds were determined from the IC50 according to the Cheng and Prusoff equation.

δ receptor = δ receptor (Rattus norvegicus, UniProt P33533); experiment: biochemical
δ receptor, sequence (P33533 whole entry): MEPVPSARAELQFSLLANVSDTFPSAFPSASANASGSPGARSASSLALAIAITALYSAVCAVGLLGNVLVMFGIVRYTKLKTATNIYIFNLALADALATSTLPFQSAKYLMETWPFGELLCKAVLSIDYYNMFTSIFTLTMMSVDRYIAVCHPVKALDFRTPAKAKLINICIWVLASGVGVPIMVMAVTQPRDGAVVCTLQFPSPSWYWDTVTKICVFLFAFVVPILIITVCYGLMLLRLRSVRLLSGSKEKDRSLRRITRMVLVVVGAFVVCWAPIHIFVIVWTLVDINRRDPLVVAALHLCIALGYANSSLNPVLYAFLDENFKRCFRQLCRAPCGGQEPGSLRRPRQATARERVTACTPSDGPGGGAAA
Procedure: as §1, §2, §3

[1] = system: PBQ induced writhing in mice; experiment: PBQ (phenylquinone)-induced writhing assay; format: in vivo, mouse; details: for Writhing ED50: Table 2, mouse; for ED50(PBQ): mouse s.c.
Procedure: The test was performed on CD #1 male mice weighing between 18 and 22 g. Mice were weighed, marked and then injected, by the intraperitoneal route, with 0.3 ml/20 g by weight of a solution of phenylquinone at 0.02%. The contortions which appeared during a 15 minute time period following the injection were counted. The phenylquinone was injected at time intervals of 5, 20 or 60 minutes after administration of the compound (or medium, or standard) by subcutaneous route. It was injected at time intervals of 60 minutes after the administration of the compound (or medium, or standard) by oral route;
The 0.02% phenylquinone solution was prepared as follows: 20 mg of phenylquinone was dissolved in 5 ml ethanol 90% (Sigma). The dissolved phenylquinone was slowly added to 95 ml of distilled water continuously shaken and preheated (not boiled). The phenylquinone solution was, at all times protected from light and a new solution was prepared every day for the test. Each group usually contained 10 mice. If an antagonist, such as naloxone, was used, it was administered 20 minutes before the compound (or the medium, or the standard) by the intraperitoneal route.
Writhing assays were performed on CD#1 male mice weighing between […]. Assays were carried out as described in Example 3 and results are summarized below in Table 2.

μ receptors = μ receptors (Cavia porcellus, UniProt P97266); experiment: Guinea Pig Ileum (GPI) assay, longitudinal muscle preparation
μ receptors, sequence (P97266 whole entry, looked up): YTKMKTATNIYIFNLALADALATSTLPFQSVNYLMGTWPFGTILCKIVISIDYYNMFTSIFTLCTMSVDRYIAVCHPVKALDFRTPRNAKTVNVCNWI
Procedure: The activity of the peptide compounds on μ receptors was determined using the Guinea Pig Ileum (GPI) assay (longitudinal muscle preparation) according to the procedures described in Schiller et al., Biophys. Res. Commun. 85:1322 (1975).

[2] = system: hot-plate response in mice; details: in vivo; for Hot Plate: sc; for central analgesic effect in the mouse hot plate test: 100 mg/kg
mice = experiment: Lethal effects / safety in mice; details: 1-5 mg kg−1 i.v. bolus dose

Molecule | Writhing ED50 [1] | ED50(PBQ) ([1]; 20 min post administration) | Hot Plate ([2]; mouse) | Ki (μ receptor; Ki^μ, Table 1) | IC50 (μ receptors; GPI(IC50), Table 1) | also measured
C[C@@H](NC(=O)[C@@H](N)Cc1ccc(O)cc1)C(=O)N[C@@H](Cc1ccc(F)cc1)C(=O)N[C@@H](Cc1ccccc1)C(N)=O [Compound #1C, H-Tyr-D-Ala-Phe(pF)-Phe-NH2] (H-Y[dA][Phe(4-F)]F-NH2) | 0.5 mg/kg |  |  |  |  | Ki (μ receptor; Binding Assay Kiμ, Table 2): 0.36 nM; Binding Assay Kiδ Kiμ (μ receptor; Table 2): 559; Ki (δ receptor): 201 nM
C[C@@H](NC(=O)[C@@H](N)Cc1ccc(O)cc1)C(=O)N[C@@H](Cc1ccccc1)C(=O)N[C@@H](Cc1ccccc1)C(N)=O [BCH1774, H-Tyr-D-Ala-Phe-Phe-NH2] (H-Y[dA]FF-NH2) | 1.4 mg/kg | 1.4 mg/kg | >100 mg/kg |  |  | Ki (μ receptor; Table 1, read-out: Ki^μ): 1.53 nM; Ki (μ receptor; Table 2, read-out: Binding Assay Kiμ): 1.53 nM; Binding Assay Kiδ Kiμ (μ receptor; Table 2): 409; Ki (δ receptor; read-out: Binding Assay Kiδ, Table 2): 626 nM; IC50 (μ receptors): 3 nM; duration of analgesic effect in writhing assay ([1]; 20 mg/kg s.c. BCH1774 vs 30 mg/kg s.c. BCH2463, FIG. 3): lasted longer than for BCH2463; lethal effects upon mice (mice): exhibited lethal effects
N=C(N)NCCC[C@@H](NC(=O)[C@@H](N)Cc1ccc(O)cc1)C(=O)N[C@@H](Cc1ccc(F)cc1)C(=O)N[C@@H](Cc1ccc(F)cc1)C(N)=O [Compound #2B, H-Tyr-D-Arg-Phe(pF)-Phe(pF)-NH2] (H-Y[dR][Phe(4-F)][Phe(4-F)]-NH2) | 0.3 mg/kg |  |  |  |  | Ki (μ receptor; Binding Assay Kiμ, Table 2): 0.22 nM; Ki (δ receptor): > 1000 nM
C[C@@H](NC(=O)[C@@H](N)Cc1ccc(O)cc1)C(=O)N[C@@H](Cc1ccc(F)cc1)C(=O)N[C@@H](Cc1ccc(F)cc1)C(N)=O [Compound #1B, H-Tyr-D-Ala-Phe(pF)-Phe(pF)-NH2] (H-Y[dA][Phe(4-F)][Phe(4-F)]-NH2) | 0.2 mg/kg |  |  |  |  | Ki (μ receptor; Binding Assay Kiμ, Table 2): 0.2 nM; Binding Assay Kiδ Kiμ (μ receptor; Table 2): 998; Ki (δ receptor): 200 nM; IC50 (μ receptors; CPI IC50, Table 2): 0.12 nM
H-Y[dS]FF-NH2 [BCH2463] |  | 0.5 mg/kg | >100 mg/kg |  |  | central analgesic effect in the mouse hot plate test [2]: No central analgesic effect was observed; reaction time in the hot plate test ([2]; mouse): about 9 seconds
N=C(N)NCCC[C@@H](NC(=O)[C@@H](N)Cc1ccc(O)cc1)C(=O)N[C@@H](Cc1ccccc1)C(=O)N[C@@H](Cc1ccccc1)C(N)=O [BCH2687, H-Tyr-D-Arg-Phe-Phe-NH2] (H-Y[dR]FF-NH2) | 0.5 mg/kg |  | >100 mg/kg |  |  | central analgesic effect in the mouse hot plate test [2]: No central analgesic effect was observed; reaction time in the hot plate test ([2]; mouse): approximately 8 seconds
C[C@@H](NC(=O)[C@@H](N)Cc1ccc(O)cc1)C(=O)N[C@@H](Cc1ccccc1)C(=O)N[C@@H](Cc1ccc2ccccc2c1)C(N)=O [BCH757, H-Tyr-D-Ala-Phe-2′-Nal-NH2] (H-Y[dA]F[2Nal]-NH2) |  |  |  | 0.655 nM | 2 nM | ED50(PBQ) ([1]; 5 min.): 1.1 (5 min.) mg/kg
C[C@@H](NC(=O)[C@@H](N)Cc1ccc(O)cc1)C(=O)N[C@@H](Cc1c[nH]c2ccccc12)C(=O)N[C@@H](Cc1ccccc1)C(N)=O [BCH1784, H-Tyr-D-Ala-Trp-Phe-NH2] (H-Y[dA]WF-NH2) |  | >20 mg/kg |  | 3.57 nM | 20 nM | 
Cc1cc(O)cc(C)c1C[C@H](N)C(=O)N[C@H](CO)C(=O)N[C@@H](Cc1ccccc1)C(=O)N[C@@H](Cc1ccccc1)C(N)=O [BCH2813, H-Dmt-D-Ser-Phe-Phe-NH2] (H-[Dmt][dS]FF-NH2) |  | 0.15 mg/kg |  |  |  | dose at which found to act centrally in the hot plate test ([2]; mouse): about 40 mg/kg
C[C@@H](NC(=O)[C@@H](N)Cc1ccc(O)cc1)C(=O)N[C@@H](Cc1ccccc1)C(=O)N[C@@H](Cc1c[nH]c2ccccc12)C(N)=O [BCH1785, H-Tyr-D-Ala-Phe-Trp-NH2] (H-Y[dA]FW-NH2) |  | >20 mg/kg |  | 2.21 nM | 16 nM | 
C[C@@H](NC(=O)[C@@H](N)Cc1ccc(O)cc1)C(=O)N[C@@H](Cc1ccc([N+](=O)[O-])cc1)C(=O)N[C@@H](Cc1ccc([N+](=O)[O-])cc1)C(N)=O [BCH1777, H-Tyr-D-Ala-Phe(4-NO2)-Phe(4-NO2)—NH2] (H-Y[dA][Phe(4-NO2)][Phe(4-NO2)]-NH2) |  | >20 mg/kg |  | 0.826 nM | 6 nM | 
NC(=O)[C@H](Cc1ccccc1)NC(=O)[C@H](Cc1ccccc1)NC(=O)[C@@H](Cc1ccccc1)NC(=O)[C@@H](N)Cc1ccc(O)cc1 [BCH753, H-Tyr-D-Phe-Phe-Phe-NH2] (H-Y[dF]FF-NH2) |  | >20 mg/kg |  | 3.63 nM | 247 nM | 
NC(=O)[C@H](Cc1ccccc1)NC(=O)[C@H](Cc1ccccc1)NC(=O)[C@@H](CS)NC(=O)[C@@H](N)Cc1ccc(O)cc1 [BCH2690, H-Tyr-D-Cys-Phe-Phe-NH2] (H-Y[dC]FF-NH2) |  | 6.2 mg/kg | >100 mg/kg |  |  | 
CCC[C@@H](NC(=O)[C@@H](N)Cc1ccc(O)cc1)C(=O)N[C@@H](Cc1ccccc1)C(=O)N[C@@H](Cc1ccccc1)C(N)=O [BCH2462, H-Tyr-D-Nva-Phe-Phe-NH2] (H-Y[dNva]FF-NH2) |  | 2.7 mg/kg | >100 mg/kg |  |  | central analgesic effect in the mouse hot plate test [2]: No central analgesic effect was observed; reaction time in the hot plate test ([2]; mouse): approximately 8 seconds; lethal effects upon mice (mice): exhibited lethal effects
N=C(N)NCCC[C@@H](NC(=O)[C@@H](N)Cc1ccc(O)cc1)C(=O)N[C@@H](Cc1ccc(F)cc1)C(=O)N[C@@H](Cc1ccccc1)C(N)=O [Compound #2C, H-Tyr-D-Arg-Phe(pF)-Phe-NH2] (H-Y[dR][Phe(4-F)]F-NH2) | 0.3 mg/kg |  |  |  |  | Ki (μ receptor; Binding Assay Kiμ, Table 2): 0.57 nM; Binding Assay Kiδ Kiμ (μ receptor; Table 2): 1671; Ki (δ receptor): 952 nM; IC50 (μ receptors; CPI IC50, Table 2): 1.52 nM
